# Data as given in patent US9624200B2, “Therapeutic piperazines” (DART NEUROSCIENCE (CAYMAN) LTD., priority 2006, dated 2017).
# Test system: PDE4 from human U-937 cells
# Experiment: PDE4 Inhibition Assay
# Assay type: biochemical
# Conditions: 1 μM cAMP, [3H]-cAMP, read-out: Potency Class (Inhibitory Concentration) in the PDE4 assay
# Method in brief: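 U-937-derived PDE4 (2 μg/ml) was preincubated with compound in Tris-HCl pH 7.5 for 15 min at 25° C. It then reacted 20 min with cAMP plus [^3H]-cAMP. [^3H]-AMP was converted to [^3H]-adenosine by nucleotidase, resin-separated and counted; IC50 came from percent inhibition.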
row,SMILES,IC50 [nM]
1,"COc1ccc(N2CCN(C(=O)Cc3ccccn3)[C@@H](Cc3ccccc3)C2)cc1OC1CCCC1 [Compound 384, (S)-1-(2-benzyl-4-(3-(cyclopentyloxy)-4-methoxyphenyl)piperazin-1-yl)-2-(pyridin-2-yl)ethanone]",< 200
2,"COc1ccc(N2CCN(C(=O)Cc3cc[nH]c3)[C@@H](Cc3ccccc3)C2)cc1OC(C)C [Compound 328, (S)-1-(2-benzyl-4-(3-isopropoxy-4-methoxyphenyl)piperazin-1-yl)-2-(1H-pyrrol-3-yl)ethanone]",< 200
3,"COc1ccc(N2CCN(C(=O)Cc3c[nH]cn3)[C@@H](Cc3ccccc3)C2)cc1OC(F)F [Compound 347, (S)-1-(2-benzyl-4-(3-(difluoromethoxy)-4-methoxyphenyl)piperazin-1-yl)-2-(1H-imidazol-4-yl)ethanone]",> 1000
4,"CCc1nn(C2CCC2)c2cc(N3CCN(C(=O)CC(N)=O)[C@@H](Cc4ccccc4)C3)ccc12 [Compound 264, (S)-3-(2-benzyl-4-(1-cyclobutyl-3-ethyl-1H-indazol-6-yl)piperazin-1-yl)-3-oxopropanamide]",< 200
5,"COc1ccc(N2CCN(C(=O)Cc3ccncc3)[C@@H](Cc3ccccc3)C2)cc1OC1CCCC1 [Compound 386, (S)-1-(2-benzyl-4-(3-(cyclopentyloxy)-4-methoxyphenyl)piperazin-1-yl)-2-(pyridin-4-yl)ethanone]",> 1000
6,"COc1ccc(N2CCN(C(=O)CC(=O)O)[C@@H](Cc3ccccc3)C2)cc1OC1CCC1 [Compound 258, (S)-3-(2-benzyl-4-(3-cyclobutoxy-4-methoxyphenyl)piperazin-1-yl)-3-oxopropanoic acid]",< 200

# More lines, now with the values ahead:
row,IC50 [nM],SMILES
1,> 1000,"CCOC(=O)CC(=O)N1CCN(c2ccc(OC)c(OC3CCCC3)c2)C[C@@H]1CC(C)C [Compound 368, (S)-ethyl 3-(4-(3-(cyclopentyloxy)-4-methoxyphenyl)-2-isobutylpiperazin-1-yl)-3-oxopropanoate]"
2,200 to 1000,"CCC(=O)N1CCN(c2ccc(OC)c(OC3CCCC3)c2)C[C@@H]1Cc1ccccc1 [Compound 244, (S)-1-(2-benzyl-4-(3-(cyclopentyloxy)-4-methoxyphenyl)piperazin-1-yl)propan-1-one]"
3,200 to 1000,"COCC(=O)N1CCN(c2ccc(OC)c(OC3CCCC3)c2)C[C@@H]1Cc1ccccc1 [Compound 245, (S)-1-(2-benzyl-4-(3-(cyclopentyloxy)-4-methoxyphenyl)piperazin-1-yl)-2-methoxyethanone]"
4,> 1000,"COc1ccc(N2CCN(C(C)=O)[C@@H](CN3CCOCC3)C2)cc1OC1CCCC1 [Compound 250, (S)-1-(4-(3-(cyclopentyloxy)-4-methoxyphenyl)-2-(morpholinomethyl)piperazin-1-yl)ethanone]"
5,> 1000,"COc1ccc(N2CCN(C(=O)Cc3sc(C)nc3C)[C@@H](Cc3ccccc3)C2)cc1OC1CCCC1 [Compound 298, (S)-1-(2-benzyl-4-(3-(cyclopentyloxy)-4-methoxyphenyl)piperazin-1-yl)-2-(2,4-dimethylthiazol-5-yl)ethanone]"
6,< 200,"COc1ccc(N2CCN(C(=O)Cc3nc(C)cs3)[C@@H](Cc3ccccc3)C2)cc1OC1CCCC1 [Compound 308, (S)-1-(2-benzyl-4-(3-(cyclopentyloxy)-4-methoxyphenyl)piperazin-1-yl)-2-(4-methylthiazol-2-yl)ethanone]"
7,< 200,"COc1ccc(N2CCN(C(=O)Cc3c[nH]cn3)[C@@H](CC(C)C)C2)cc1OC1CCCC1 [Compound 364, (S)-1-(4-(3-(cyclopentyloxy)-4-methoxyphenyl)-2-isobutylpiperazin-1-yl)-2-(1H-imidazol-4-yl)ethanone]"
8,< 200,"Cc1nc(CC(=O)N2CCN(c3ccc(OC(F)F)c(OCC4CC4)c3)C[C@@H]2CC(C)C)n[nH]1 [Compound 373, (S)-1-(4-(3-(cyclopropylmethoxy)-4-(difluoromethoxy)phenyl)-2-isobutylpiperazin-1-yl)-2-(5-methyl-1-H-1,2,4-triazol-3-yl)ethanone]"

# Test system: contextual memory (freezing) in C57BL/6 male mice
# Experiment: Contextual Memory Assay: Fear Conditioning
# Assay type: in vivo, mouse
# Conditions: 0.1 mg/kg injected 20 minutes before training
# Text: Contextual memory is a form of Pavlovian fear conditioning in which a naive mouse is placed into a novel chamber (context) containing distinct visual, olfactory and tactile cues. After several minutes of acclimation, the mouse receives a brief, mild electric shock to its feet. From this negative experience, the mouse will remember for months that that chamber is dangerous. When placed back into the same context at some later time after training, the mouse's natural response to danger is to “freeze,” sitting stone still for many seconds. This is similar to what happens to humans when they experience fear. The percent of time during an observation period that the mouse spends frozen represents a quantitative measure (memory score) of its memory of the context.
# Young-adult (10-12 weeks old) C57BL/6 male mice and Sprague Dawley male rats of 250-300 g (Taconic, N.Y.) were used. Mice were group-housed (5 mice) in standard laboratory cages while rats were housed in pairs and maintained on a 12:12 light-dark cycle. The experiments were always conducted during the light phase of the cycle. With the exception of testing times, the mice had ad lib access to food and water. […]
# To assess contextual memory, a modified contextual fear conditioning task originally developed for evaluation of memory in CREB knock-out mice was used (Bourtchouladze, et. aL, Cell, 1994, 79, 59-68). […] 24 hours after training, the mouse was placed into the same training chamber and contextual memory was assessed by scoring freezing behavior (‘freezing’ serves as memory score). […]
# All experiments were designed and performed in a balanced fashion, meaning that (i) for each experimental condition (e.g. a specific dose-effect) an equal number of experimental and control mice was used; (ii) each experimental condition was replicated 2-3 independent times, and replicate days were added to generate final number of subjects. […] Data were analyzed by Student's unpaired t test using a software package (Statview 5.0.1; SAS Institute, Inc). All values in the text and figures are expressed as mean+SEM. […]
row,SMILES,effect on contextual memory
1,"COc1ccc(N2CCN[C@@H](CC3CCCCC3)C2)cc1OC1CCCC1 [Compound 126, (S)-3-Cyclohexylmethyl-1-(3-cyclopentyloxy-4-methoxy-phenyl)-piperazine]",no significant effect

# Same assay, conditions: 1 mg/kg injected 20 minutes before training, 2 training trials, vehicle 22.3+3.2%, p<0.05
row,SMILES,freezing (memory score) 24 hours after training
1,"COc1ccc(N2CCN[C@@H](CC3CCCCC3)C2)cc1OC1CCCC1 [Compound 126, (S)-3-Cyclohexylmethyl-1-(3-cyclopentyloxy-4-methoxy-phenyl)-piperazine]",32.5+3.2%

# Same assay, conditions: 10 mg injected 20 minutes before training, 2 training trials, vehicle 22.3+3.2%, p<0.005
row,SMILES,freezing (memory score) 24 hours after training [%]
1,"COc1ccc(N2CCN[C@@H](CC3CCCCC3)C2)cc1OC1CCCC1 [Compound 126, (S)-3-Cyclohexylmethyl-1-(3-cyclopentyloxy-4-methoxy-phenyl)-piperazine]",38.3
